According to US12152077B1, “Immunotherapy targeting tumor neoantigenic peptides” (INSTITUT CURIE, priority 2019, dated 2024):
“Also recorded” adds a separate entry of the source.

Key:
[1] = test system: CD8+ T cells from HLA-A2+ healthy donors; assay: Priming of naive CTLs by peptide-loaded autologous moDCs (immunogenicity, tetramer staining); type: cell-based, human; details: for expansion of specific CD8+ T cells (tetramer positive): one donor, versus co-culture without peptides; for specific CD8+ T expansions (immunogenicity): total of 6 donors, FIG. 11A
Method: Priming of naïve CTLs. PBMCs were obtained by Ficoll gradient separation from HLA-A2+ healthy blood donors. CD14+, CD4+ and CD8+ cells were purified by positive selection using magnetic beads (Miltenyi Biotec). While CD4+ and CD8+ T cells were cryopreserved until the experiment day, CD14+ fraction was cultured in the presence of IL-4 (50 ng/mL) and GM-CSF (10 ng/ml) at 10^6 cells/mL during 5 days to obtain moDCs. After this period of time, the moDCs were maturated with LPS and incubated with synthetic ER-derived peptides at a final concentration of 1 μg/mL for 2 hours. Finally, peptide-loaded moDCs were co-cultured with autologous CD4+ and CD8+ T cells in culture medium supplemented with IL-2 (10 U/ml) and IL-7 (100 ng/ml). The ER-derived peptide stimulation of specific CD8+ CTL populations was assessed by MHC-I tetramer staining by flow cytometry using a combination of two-color tetramer for each peptide.
(§1) Tetramer Staining. Cells were resuspended in PBS, stained with Live/Dead Aqua-405 nm (ThermoFisher) during 20 minutes at 4° C. and washed once. After that, cells were resuspended in PBS-1% BSA containing the mix of SA-coupled tetramers and incubated in the dark at room temperature during 20 minutes. Without further washing, surface antibodies were added in PBS-1% BSA and cells were incubated 20 minutes in the dark at 4° C. Surface antibodies were a combination of anti-CD3-BV650+ anti-CD8-PECy7 in combination with anti-CCR7-AF700+ anti-CD45RA-BUV395 when required. Finally, cells were washed twice and resuspended in FACS buffer for flow cytometry analysis.
The following step after binding validation to HLA-A2 allele, was to test the immunogenicity of predicted peptides. Priming assays were thus performed to test the ability of identified peptides to expand specific cytotoxic T cells. PBMCs from HLA-A2+ healthy donors were used to generate monocyte derived-DCs (moDCs). After loading the moDCs with a mix of synthetic peptides, autologous co-culture was performed with CD4+ and CD8+ T cells. Finally, the expansion of specific CD8+ T cells was analysed by flow cytometry using two-colours tetramer staining. As a control of specific expansion, the co-culture was performed in the absence of peptides. […] The same experiment was performed in order to evaluate the response in additional 5 donors.

[2] = test system: TILs derived from LUAD patients; assay: Tetramer staining of expanded tumor infiltrating lymphocytes (TILs); type: cell-based, human; details: TILs expanded with peptide mix + IL-2 or IL-2 only; HLA-A2+ LUAD patients
Method: as §1
Tumor infiltrating lymphocytes (TILs) cultures. Tumor tissue was cut into small pieces (1-3 mm3 size, 6-12 pieces maximum). Each tumor fragment was transferred into individual wells from 24-well plates and cultured in a final volume of 2 ml RPMI 10% Human Serum+IL-2 6000 IU/ml. Cells were feed/split as necessary during 15-20 days and cryopreserve or analyzed for tetramer staining.
In a first set of experiments tumor infiltrating lymphocytes (TILs) expanded with a mix of TE-derived peptides and Il-2, or only with Il-2, were analyzed by tetramer staining. As is shown in FIGS. 13A and B, we found CD8+ T-cells cells recognizing fusion-derived peptides in TILs derived from LUAD patients.

| Sequence | expansion of specific CD8+ T cells (tetramer positive) [1] | specific CD8+ T expansions (immunogenicity) [1] | CD8+ T cells recognizing peptide in TILs (tetramer positive) [2] |
| --- | --- | --- | --- |
| FLIVAEILI | expand specific CD8+ T cells |  |  |
| SLMQSGSPV |  | specific CD8+ T expansions |  |
| ILHSLVTGV |  | specific CD8+ T expansions |  |
| YLWTTFFPL | expand specific CD8+ T cells | specific CD8+ T expansions |  |
| RLADHLSFC | expand specific CD8+ T cells | specific CD8+ T expansions; also recorded: immunogenic |  |
| VLLTNTIWL |  | specific CD8+ T expansions |  |
| RQAPGFHHA |  | specific CD8+ T expansions |  |
| GLPSHVELA |  | specific CD8+ T expansions; also recorded: immunogenic | found TILs recognizing |
| ILTASITSI |  | specific CD8+ T expansions |  |
| ILSGYGPCV |  | specific CD8+ T expansions |  |
| LLGETKVYV | expand specific CD8+ T cells | specific CD8+ T expansions |  |
| AILPKANTV | expand specific CD8+ T cells | specific CD8+ T expansions |  |
| FLGTRVTRV |  | specific CD8+ T expansions |  |
| GLLNISHTA |  | specific CD8+ T expansions |  |
| LLHLESFLV |  | specific CD8+ T expansions |  |
| RLLHLESFL | expand specific CD8+ T cells |  |  |
| LLTSWHLYL |  | specific CD8+ T expansions |  |
| MLMKTVWQA |  | specific CD8+ T expansions |  |
| LLDRFGYHV |  | specific CD8+ T expansions |  |
| MLVTWELAL |  | specific CD8+ T expansions |  |
| AMDGKELSL |  | specific CD8+ T expansions |  |
